Earlier results, collected in patent US10087176B2, “3,5-dichloro,4-(3,4-(cyclo-)alkoxyphenyl)--2-carbonyloxy)ethyl)pyridine derivatives as PDE-4 inhibitors” (Chiesi Farmaceutici S.p.A., priority 2014, dated 2018).

Legend:
[1] = tested on: lung inflammation and emphysema; settings: smoking model of COPD in mice
[2] = tested on: neutrophils and CXCL8 in sputum; settings: COPD patients, oral, given over 4 weeks
[3] = patients with severe disease, frequent exacerbations and mucus hypersecretion

O=C(Nc1c(Cl)cncc1Cl)c1ccc(OC(F)F)c(OCC2CC2)c1 [roflumilast]
effect on lung inflammation and emphysema [1]: inhibits lung inflammation and emphysema | effect on CXCL8 concentrations in sputum [2]: significantly reduces | reduction of numbers of neutrophils in sputum [2]: 36% | improvement of FEV 1 [3]: approximately 50 ml | reduction of exacerbation [3]: about 15%
